Data published in publication PMC9921851, “Synthesis and Preclinical Evaluation of Three Novel ^68Ga-Labeled Bispecific PSMA/FAP-Targeting Tracers for Prostate Cancer Imaging” (Molecules, 2023).

Key:
[1] = tested on: FAP-expressing HEK293T:hFAP tumor xenografts; assay: Ex vivo biodistribution in HEK293T:hFAP tumor-bearing mice; conditions: 1 h post injection, mean ± SD, n = 4
Method: Biodistribution studies were also conducted at 1 h post injection with [^68Ga]Ga-AV01017, [^68Ga]Ga-AV01030, [^68Ga]Ga-AV01038, [^68Ga]Ga-HTK03041, and [^68Ga]Ga-FAPI-04 in HEK293T:hFAP tumor-bearing mice (Figure 6 and Table S5, Supplementary Materials). Tumor uptake values for [^68Ga]Ga-AV01017, [^68Ga]Ga-AV01030, [^68Ga]Ga-AV01038, [^68Ga]Ga-HTK03041, and [^68Ga]Ga-FAPI-04 were 2.99 ± 0.37, 3.69 ± 0.81, 3.64 ± 0.83, 0.62 ± 0.19, and 12.5 ± 2.00 %ID/g, respectively. There was a very low tumor uptake in mice injected with [^68Ga]Ga-HTK03041, showing very minimal FAP expression in this tumor model. The uptake levels of these tracers on the major organs and tissues are consistent with the trends observed in the LNCaP tumor-baring mice (Figure 5 and Supplemental Table S4).
(§1) Imaging and biodistribution studies were performed using male NOD.Cg-Rag1tm1Mom Il2rgtm1Wjl/SzJ (NRG) mice following previously published procedures. The experiments were conducted according to the guidelines established by the Canadian Council on Animal Care and approved by Animal Ethics Committee of the University of British Columbia. The mice were briefly sedated by inhalation of 2.5% isoflurane in oxygen, and 100 µL LNCaP (2 × 10^5 cells) or HEK293T:hFAP (8.5 × 10^6 cells) cells were inoculated subcutaneously behind the left shoulder. When the tumor grew to 5–8 mm in diameter over 3–4 weeks and 4–5 weeks for HEK293T:hFAP and LNCaP tumors, respectively, the mice were used for PET/CT imaging and biodistribution studies.
(§2) For biodistribution studies, the mice were injected with the radiotracer (~2–4 MBq) as described above. At 1 h post injection, the mice were euthanized by CO2 inhalation. Blood was withdrawn by cardiac puncture, and organs/tissues of interest were collected, weighed, and counted using a Perkin Elmer (Waltham, MA, USA) Wizard2 2480 automatic gamma counter.

[2] = tested on: PSMA-expressing LNCaP tumor xenografts; assay: Ex vivo biodistribution in LNCaP tumor-bearing mice; conditions: LNCaP tumor-bearing mice, 1 h post injection, mean ± SD, n = 4
Method: Biodistribution studies were conducted at 1 h post injection with ^68Ga-labeled AV01017, AV01030, AV01038, HTK03041, and FAPI-04 in LNCaP tumor-bearing mice (Figure 5 and Table S4, Supplementary Materials). The results were consistent with the observation from their PET images. Tumor uptake values for [^68Ga]Ga-AV01017, [^68Ga]Ga-AV01030, [^68Ga]Ga-AV01038, [^68Ga]Ga-HTK03041, and [^68Ga]Ga-FAPI-04 were 4.38 ± 0.55, 5.17 ± 0.51, 4.25 ± 0.86, 23.1 ± 6.11, and 3.15 ± 1.43 %ID/g, respectively. […] Although not statistically significant, the bispecific tracers with a longer linker tend to have a higher blood uptake value (9.24 ± 1.55 %ID/g for [^68Ga]Ga-AV01017; 7.07 ± 0.31%ID/g for [^68Ga]Ga-AV01038; 5.75 ± 0.59 %ID/g for [^68Ga]Ga-AV01030) and a lower tumor-to-blood ratio (0.48 ± 0.11 for [^68Ga]Ga-AV01017; 0.60 ± 0.13 for [^68Ga]Ga-AV01038; 0.89 ± 0.03 for [^68Ga]Ga-AV01030).
as §1, §2

SMILES: N#C[C@@H]1CC(F)(F)CN1C(=O)CNC(=O)c1ccnc2ccc(OCCCc3cn(CC(=O)N[C@@H](CCCCNC(=O)CN4CCN(CC(=O)[O-])CCN(CC(=O)[O-])CCN(CC(=O)[O-])CC4)C(=O)NCC(=O)NC[C@H]4CC[C@H](C(=O)N[C@@H](Cc5c6ccccc6cc6ccccc56)C(=O)NCCCC[C@H](NC(=O)N[C@@H](CCC(=O)O)C(=O)O)C(=O)O)CC4)nn3)cc12.[68Ga+3] [[^68Ga]Ga-AV01017]
- Adrenal glands uptake [1]: 4.06 ± 0.27 %ID/g
- Blood uptake [1]: 11.9 ± 3.37 %ID/g
- Bone uptake [1]: 5.26 ± 0.32 %ID/g
- Brain uptake [1]: 0.21 ± 0.07 %ID/g
- Fat uptake [1]: 0.61 ± 0.13 %ID/g
- HEK293T:hFAP tumor uptake [1]: 2.99 ± 0.37 %ID/g
- Heart uptake [1]: 4.63 ± 0.42 %ID/g
- Kidneys uptake [1]: 19.3 ± 2.25 %ID/g
- Lacrimal gland uptake [1]: 1.34 ± 0.50 %ID/g
- Large Intestine uptake [1]: 1.44 ± 0.20 %ID/g
- Liver uptake [1]: 3.40 ± 0.64 %ID/g
- Lungs uptake [1]: 5.50 ± 1.26 %ID/g
- Muscle uptake [1]: 1.63 ± 0.06 %ID/g
- Pancreas uptake [1]: 3.80 ± 0.25 %ID/g
- Salivary glands uptake [1]: 6.43 ± 1.03 %ID/g
- Seminal vesicle uptake [1]: 1.15 ± 0.33 %ID/g
- Small Intestine uptake [1]: 2.14 ± 0.65 %ID/g
- Spleen uptake [1]: 3.63 ± 3.60 %ID/g
- Stomach uptake [1]: 0.63 ± 0.08 %ID/g
- Testes uptake [1]: 1.15 ± 0.86 %ID/g
- Thyroid uptake [1]: 10.7 ± 2.15 %ID/g
- Tumor/blood uptake ratio [1]: 0.18 ± 0.08
- Tumor/bone uptake ratio [1]: 0.44 ± 0.12
- Tumor/kidney uptake ratio [1]: 0.11 ± 0.03
- Tumor/muscle uptake ratio [1]: 1.25 ± 0.17
- Adrenal glands uptake [2]: 6.24 ± 2.31 %ID/g
- Blood uptake [2]: 9.24 ± 1.55 %ID/g
- Bone uptake [2]: 4.05 ± 0.86 %ID/g
- Brain uptake [2]: 0.18 ± 0.01 %ID/g
- Fat uptake [2]: 1.01 ± 0.48 %ID/g
- Heart uptake [2]: 4.04 ± 0.28 %ID/g
- Kidneys uptake [2]: 30.9 ± 6.89 %ID/g
- LNCaP tumor uptake [2]: 4.38 ± 0.55 %ID/g
- Lacrimal glands uptake [2]: 0.13 ± 0.27 %ID/g
- Large Intestine uptake [2]: 1.76 ± 0.21 %ID/g
- Liver uptake [2]: 2.24 ± 0.34 %ID/g
- Lungs uptake [2]: 3.76 ± 0.66 %ID/g
- Muscle uptake [2]: 1.91 ± 0.43 %ID/g
- Pancreas uptake [2]: 5.38 ± 1.29 %ID/g
- Salivary glands uptake [2]: 5.98 ± 4.00 %ID/g
- Seminal vesicle uptake [2]: 1.12 ± 0.21 %ID/g
- Small Intestine uptake [2]: 2.47 ± 0.48 %ID/g
- Spleen uptake [2]: 3.73 ± 1.19 %ID/g
- Stomach uptake [2]: 0.64 ± 0.11 %ID/g
- Testes uptake [2]: 0.69 ± 0.06 %ID/g
- Thyroid uptake [2]: 12.7 ± 2.72 %ID/g
- Tumor/blood uptake ratio [2]: 0.48 ± 0.11
- Tumor/bone uptake ratio [2]: 1.10 ± 0.15
- Tumor/kidney uptake ratio [2]: 0.14 ± 0.03
- Tumor/muscle uptake ratio [2]: 2.35 ± 0.35
